Data taken from US9365583B2, “Substituted pyrazoles and uses thereof” (Genentech, Inc., priority 2013, dated 2016).

target: T1, N-terminally GST-tagged DLK (catalytic domain amino acid 1-520) (Homo sapiens, UniProt Q12852); test: DLK TR-FRET inhibition assay; format: biochemical; settings: 5 nM GST-DLK, 40 nM HIS-MKK4 K131M substrate, 30 μM ATP, 60 minutes at ambient temperature
T1 construct: N-terminally GST-tagged DLK (catalytic domain amino acid 1-520); purchased Carna Bioscience
T1 sequence (Q12852 1-520): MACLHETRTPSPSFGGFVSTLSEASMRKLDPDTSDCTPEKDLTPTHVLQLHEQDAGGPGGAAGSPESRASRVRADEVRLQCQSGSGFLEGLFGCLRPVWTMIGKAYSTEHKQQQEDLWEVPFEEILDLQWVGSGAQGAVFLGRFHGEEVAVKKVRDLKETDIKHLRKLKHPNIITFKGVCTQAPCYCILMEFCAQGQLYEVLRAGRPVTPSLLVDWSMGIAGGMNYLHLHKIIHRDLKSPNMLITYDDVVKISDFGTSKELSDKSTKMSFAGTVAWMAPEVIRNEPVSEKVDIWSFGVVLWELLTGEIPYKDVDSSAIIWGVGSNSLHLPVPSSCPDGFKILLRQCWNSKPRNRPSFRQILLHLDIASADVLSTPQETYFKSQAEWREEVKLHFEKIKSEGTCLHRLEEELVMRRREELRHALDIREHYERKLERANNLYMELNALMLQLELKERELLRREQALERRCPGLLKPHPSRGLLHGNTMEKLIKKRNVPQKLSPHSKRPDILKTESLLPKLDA
Procedure: DLK TR-FRET inhibition assay: DLK kinase reactions (20 μL) containing 5 nM N-terminally GST-tagged DLK (catalytic domain amino acid 1-520) (Carna Bioscience), 40 nM N-terminally HIS-tagged MKK4 K131M substrate, and 30 μM ATP in kinase reaction buffer (50 mM HEPES, pH 7.5, 0.01% Triton X-100, 0.01% Bovine γ-Globulins, 2 mM DTT, 10 mM MgCl2 and 1 mM EGTA), and testing compound 1:3 serial diluted starting at 20 uM were incubated at ambient temperature for 60 minutes in 384 well OptiPlate (Perkin Elmer). To quench kinase reactions and detect phosphorylated MKK4, 15 μL of TR-FRET antibody mixture containing 2 nM anti-phosphorylated MKK4 labeled with Europium cryptate (Cisbio) and 23 nM anti-HIS labeled with D2 (Cisbio) in detection buffer (25 mM Tris pH 7.5, 100 mM NaCl, 100 mM EDTA, 0.01% Tween-20, and 200 mM KF) was added to the reaction mixture. The detection mixture was incubated for 3 hours at ambient temperature and the TR-FRET was detected with an EnVision multilabel plate reader (Perkin-Elmer) using the LANCE/DELFIA Dual Enh label from Perkin-Elmer (excitation filter: UV2 (TRF) 320 and emission filters: APC 665 and Europium 615).

Q: `CC(C)n1nc(-c2cnc(N)c(OC(F)F)c2)cc1[C@H]1[C@@H]2C[C@H](O)C[C@@H]21` [compound 4, (1R,3r,5S,6r)-6-(3-(6-amino-5-(difluoromethoxy)pyridin-3-yl)-1-isopropyl-1H-pyrazol-5-yl) bicyclo[3.1.0]hexan-3-ol] was tested. Which Ki did it give?
A: The Ki was 4.51 nM.

Q: With `CC(C)n1nc(-c2cnc(N)c(C(F)(F)F)c2)cc1[C@H]1[C@@H]2C[C@@H](O)C[C@@H]21` [compound 5, (1R,3s,5S,6r)-6-(3-(6-amino-5-(trifluoromethyl)pyridin-3-yl)-1-isopropyl-1H-pyrazol-5-yl) bicyclo[3.1.0]hexan-3-ol] as the compound, how does the Ki read?
A: Its Ki is 18.8 nM.

Q: How did the Ki turn out when `CC(C)n1nc(-c2cnc(N)c(OC(F)F)c2)cc1[C@H]1[C@@H]2C[C@@H](O)C[C@@H]21` [compound 6, (1R,3s,5S,6r)-6-(3-(6-amino-5-(difluoromethoxy)pyridin-3-yl)-1-isopropyl-1H-pyrazol-5-yl) bicyclo[3.1.0]hexan-3-ol] was run?
A: The Ki was 14.4 nM.

Q: How did the Ki turn out when `CC(C)n1nc(-c2cnc(N)c(C(F)(F)F)c2)cc1[C@H]1[C@@H]2C[C@@H](N(C)CCS(C)(=O)=O)C[C@@H]21` [compound 7, 5-(1-isopropyl-5-((1R,3s,5S,6r)-3-(methyl(2-(methylsulfonyl)ethyl)amino)bicyclo[3.1.0]hexan-6-yl)-1H-pyrazol-3-yl)-3-(trifluoromethyl)pyridin-2-amine] was run?
A: Its Ki is 4.63 nM.

Q: For `CC(C)n1nc(-c2cnc(N)c(C(F)(F)F)c2)cc1[C@H]1[C@@H]2C[C@H](N(C)CCS(C)(=O)=O)C[C@@H]21` [compound 8, 5-(1-isopropyl-5-((1R,3r,5S,6r)-3-(methyl(2-(methylsulfonyl)ethyl)amino)bicyclo[3.1.0]hexan-6-yl)-1H-pyrdzol-3-yl)-3-(trifluoromethyl)pyridin-2-amine], which Ki is on record?
A: The Ki was 3.36 nM.

Q: Which Ki does the source give for `CC(C)n1nc(-c2cnc(N)c(C(F)(F)F)c2)cc1[C@H]1[C@@H]2C[C@@H](N3CCS(=O)(=O)CC3)C[C@@H]21` [compound 9, 4-((1R,3s,5S,6r)-6-(3-(6-amino-5-(trifluoromethyl)pyridin-3-yl)-1-isopropyl-1H-pyrazol-5-yl)bicyclo[3.1.0]hexan-3-yl)thio-morpholine 1,1-dioxide] here?
A: Its Ki is 4 nM.

Q: Which Ki does the source give for `CC(C)n1nc(-c2cnc(N)c(C(F)(F)F)c2)cc1[C@H]1[C@@H]2C[C@H](N3CCS(=O)(=O)CC3)C[C@@H]21` [compound 10, 4-((1R,3r,5S,6r)-6-(3-(6-amino-5-(trifluoromethyl)pyridin-3-yl)-1-isopropyl-1H-pyrazol-5-yl)bicyclo[3.1.0]hexan-3-yl)thio-morpholine 1,1-dioxide] here?
A: The Ki was 3.28 nM.

Q: With `CC(C)n1nc(-c2cnc(N)c(OC(F)(F)F)c2)cc1[C@H]1[C@@H]2C[C@@H](N3CCOC[C@H]3C)C[C@@H]21` [compound 13, 5-(1-isopropyl-5-((1R,3s,5S,6R)-3-((R)-3-mcthylmorpholino)bicyclo[3.1.0]hexan-6-yl)-1H-pyrazol-3-yl)-3-(trifluoromethoxy) pyridin-2-amine] as the compound, how does the Ki read?
A: Its Ki is 1.89 nM.

Q: Which Ki does the source give for `CCN1CCN([C@H]2C[C@@H]3[C@H](C2)[C@H]3c2cc(-c3cnc(N)c(OC(F)(F)F)c3)nn2C(C)C)CC1` [compound 14, 5-(5-((1R,3r,5S,6r)-3-(4-ethylpiperazin-1-yl)bicyclo[3.1.0]hexan-6-yl)-1-isopropyl-1H-pyrazol-3-yl)-3-(trifluoromethoxy) pyridin-2-amine] here?
A: Its Ki is 1.72 nM.

Q: How did the Ki turn out when `CCN1CCN([C@@H]2C[C@@H]3[C@H](C2)[C@H]3c2cc(-c3cnc(N)c(OC(F)(F)F)c3)nn2C(C)C)CC1` [compound 15, 5-(5-((1R,3s,5S,6r)-3-(4-ethylpiperazin-1-yl)bicyclo[3.1.0]hexan-6-yl)-1-isopropyl-1H-pyrazol-3-yl)-3-(trifluoromethoxy) pyridin-2-amine] was run?
A: Its Ki is 3.58 nM.

Q: Which Ki does the source give for `CCN1CCN([C@H]2C[C@@H]3[C@H](C2)[C@H]3c2cc(-c3cnc(N)c(C(F)(F)F)c3)nn2C(C)C)CC1` [compound 16, 5-(5-((1R,3r,5S,6r)-3-(4-ethylpiperazin-1-yl)bicyclo[3.1.0]hexan-6-yl)-1-isopropyl-1H-pyrazol-3-yl)-3-(trifluoromethyl)pyridin-2-amine] here?
A: Its Ki is 9.1 nM.

Q: `CCN1CCN([C@@H]2C[C@@H]3[C@H](C2)[C@H]3c2cc(-c3cnc(N)c(C(F)(F)F)c3)nn2C(C)C)CC1` [compound 17, 5-(5-((1R,3s,5S,6r)-3-(4-ethylpiperazin-1-yl)bicyclo[3.1.0]hexan-6-yl)-1-isopropyl-1H-pyrazol-3-yl)-3-(trifluoromethyl)pyridin-2-amine] was tested. Which Ki did it give?
A: Its Ki is 2.92 nM.

Q: With `CC(C)n1nc(-c2cnc(N)c(OC(F)(F)F)c2)cc1[C@H]1[C@@H]2C[C@@H](N(C)CC3COC3)C[C@@H]21` [compound 18, 5-(1-isopropyl-5-((1R,3s,5S,6r)-3-(methyl(oxetan-3-ylmethyl)amino)bicyclo[3.1.0]hexan-6-yl)-1H-pyrazol-3-yl)-3-(trifluoromethoxy) pyridin-2-amine] as the compound, how does the Ki read?
A: The Ki was 3.81 nM.

Q: For `CC(C)n1nc(-c2cnc(N)c(OC(F)(F)F)c2)cc1[C@H]1[C@@H]2C[C@H](N(C)CC3COC3)C[C@@H]21` [compound 19, 5-(1-isopropyl-5-((1R,3r,5S,6r)-3-(methyl(oxetan-3-ylmethyl)amino)bicyclo[3.1.0]hexan-6-yl)-1H-pyrazol-3-yl)-3-(trifluoro-methoxy)pyridin-2-amine], which Ki is on record?
A: Its Ki is 2.97 nM.

Q: How did the Ki turn out when `CC(C)n1nc(-c2cnc(N)c(C(F)(F)F)c2)cc1[C@H]1[C@@H]2C[C@H](N(C)CC3COC3)C[C@@H]21` [compound 20, 5-(1-isopropyl-5-((1R,3r,5S,6r)-3-(methyl(oxetan-3-ylmethyl)amino)bicyclo[3.1.0]hexan-6-yl)-1H-pyrazol-3-yl)-3-(trifluoro-methyl)pyridin-2-amine] was run?
A: Its Ki is 4.39 nM.

Q: `CC(C)n1nc(-c2cnc(N)c(C(F)(F)F)c2)cc1[C@H]1[C@@H]2C[C@@H](N(C)CC3COC3)C[C@@H]21` [compound 21, 5-(1-isopropyl-5-((1R,3s,5S,6r)-3-(methyl(oxetan-3-ylmethyl)amino)bicyclo[3.1.0]hexan-6-yl)-1H-pyrazol-3-yl)-3-(trifluoromethyl) pyridin-2-amine] was tested. Which Ki did it give?
A: Its Ki is 4.2 nM.

Q: `CO[C@@H]1CCN([C@H]2C[C@@H]3[C@H](C2)[C@H]3c2cc(-c3cnc(N)c(OC(F)(F)F)c3)nn2C(C)C)C1` [compound 22, 5-(1-isopropyl-5-((1R,3r,5S,6R)-3-((R)-3-methoxypyrrolidin-1-yl)bicyclo[3.1.0]hexan-6-yl)-1H-pyrazol-3-yl)-3-(trifluoro-methoxy)pyridin-2-amine] was tested. Which Ki did it give?
A: Its Ki is 1.57 nM.

Q: For `CO[C@H]1CCN([C@H]2C[C@@H]3[C@H](C2)[C@H]3c2cc(-c3cnc(N)c(OC(F)(F)F)c3)nn2C(C)C)C1` [compound 23, 5-(1-isopropyl-5-((1R,3r,5S,6S)-3-((S)-3-methoxypyrrolidin-1-yl)bicyclo[3.1.0]hexan-6-yl)-1H-pyrazol-3-yl)-3-(trifluoro-methoxy)pyridin-2-amine], which Ki is on record?
A: Its Ki is 0.98 nM.

Q: For `CC(C)n1nc(-c2cnc3ccn([C@@H](C)c4ccccn4)c3c2)cc1[C@H]1[C@@H]2C[C@@H](N3CCOCC3)C[C@@H]21` [compound 24, 4-((1R,3R,5S,6r)-6-(1-isopropyl-3-(1-((S)-1-(pyridin-2-yl)ethyl)-1H-pyrrolo[3,2-b]pyridin-6-yl)-1H-pyrazol-5-yl)bicyclo[3.1.0]hexan-3-yl)morpholine], which Ki is on record?
A: The Ki was 0.34 nM.

Q: How did the Ki turn out when `CC(C)n1nc(-c2cnc3ccn([C@H](C)c4ccccn4)c3c2)cc1[C@H]1[C@@H]2C[C@@H](N3CCOCC3)C[C@@H]21` [compound 25, 4-((1R,3S,5S,6r)-6-(1-isopropyl-3-(1-((R)-1-(pyridin-2-yl)ethyl)-1H-pyrrolo[3,2-b]pyridin-6-yl)-1H-pyrazol-5-yl)bicyclo[3.1.0]hexan-3-yl)morpholine] was run?
A: The Ki was 70.6 nM.

Q: For `CC(C)n1nc(-c2cnc3ccn([C@H](C)c4ccccn4)c3c2)cc1[C@H]1[C@@H]2C[C@H](N3CCOCC3)C[C@@H]21` [compound 26, 4-((1R,3R,5S,6r)-6-(1-isopropyl-3-(1-((R)-1-(pyridin-2-yl)ethyl)-1H-pyrrolo[3,2-b]pyridin-6-yl)-1H-pyrazol-5-yl)bicyclo[3.1.0]hexan-3-yl)morpholine], which Ki is on record?
A: Its Ki is 75.6 nM.

Q: For `CC(C)n1nc(-c2cnc3ccn([C@@H](C)c4ccccn4)c3c2)cc1[C@H]1[C@@H]2C[C@H](N3CCOCC3)C[C@@H]21` [compound 27, 4-((1R,3S,5S,6r)-6-(1-isopropyl-3-(1-((S)-1-(pyridin-2-yl)ethyl)-1H-pyrrolo[3,2-b]pyridin-6-yl)-1H-pyrazol-5-yl)bicyclo[3.1.0]hexan-3-yl)morpholine], which Ki is on record?
A: The Ki was 0.14 nM.
